Assay results as given in ChEMBL document CHEMBL1201862, “PubChem BioAssay data set” (2004).
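Grown in 96-well plates, cells were treated for 48 hours with each compound at five concentrations. Insufficient inhibition: endpoint recorded as highest concentration tested. GI50: concentration for 50% inhibition of growth.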 The source made the active and inactive calls. Rule as the data show it: active = GI50 up to about 1.1 µM and inactive = higher.

Experiments:
Experiment in all cases: DTP human tumour cell line panel, 48 h
786-0 = test system: 786-0
A498 = test system: A498
A549 = test system: A549
ACHN = test system: ACHN
BT-549 = test system: BT-549
CAKI-1 = test system: CAKI-1
CCRF-CEM = test system: CCRF-CEM
COLO 205 = test system: COLO 205
DLD-1 = test system: DLD-1
DMS-114 = test system: DMS-114
DMS-273 = test system: DMS-273
DU-145 = test system: DU-145
EKVX = test system: EKVX
HCC 2998 = test system: HCC 2998
HCT-116 = test system: HCT-116
HCT-15 = test system: HCT-15
HL-60 = test system: HL-60
HOP-18 = test system: HOP-18
HOP-62 = test system: HOP-62
HOP-92 = test system: HOP-92
HT-29 = test system: HT-29
Hs-578T = test system: Hs-578T
IGROV-1 = test system: IGROV-1
K562 = test system: K562
KM-20L2 = test system: KM-20L2
KM12 = test system: KM12
LOX IMVI = test system: LOX IMVI
LXFL 529 = test system: LXFL 529
M14 = test system: M14
M19-MEL = test system: M19-MEL
MCF7 = test system: MCF7
MDA-MB-435 = test system: MDA-MB-435
MDA-N = test system: MDA-N
MOLT-4 = test system: MOLT-4
Malme-3M = test system: Malme-3M
NCI-H226 = test system: NCI-H226
NCI-H23 = test system: NCI-H23
NCI-H460 = test system: NCI-H460
NCI-H522 = test system: NCI-H522
NCI/ADR-RES = test system: NCI/ADR-RES
OVCAR-3 = test system: OVCAR-3
OVCAR-4 = test system: OVCAR-4
OVCAR-5 = test system: OVCAR-5
OVCAR-8 = test system: OVCAR-8
PC-3 = test system: PC-3
RPMI-8226 = test system: RPMI-8226
RXF 393 = test system: RXF 393
SF-268 = test system: SF-268
SF-295 = test system: SF-295
SF-539 = test system: SF-539
SK-MEL-28 = test system: SK-MEL-28
SK-MEL-2 = test system: SK-MEL-2
SK-MEL-5 = test system: SK-MEL-5
SK-OV-3 = test system: SK-OV-3
SN12C = test system: SN12C
SNB-19 = test system: SNB-19
SNB-75 = test system: SNB-75
SNB-78 = test system: SNB-78
SR = test system: SR
SW-620 = test system: SW-620
T47D = test system: T47D
TK-10 = test system: TK-10
U-251 = test system: U-251
UACC-257 = test system: UACC-257
UACC-62 = test system: UACC-62
UO-31 = test system: UO-31
XF498 = test system: XF498

Q: For Clc1cccc(N2CCN(CCN3CCc4c([nH]c5ccccc45)C3c3cccnc3)CC2)c1 (configuration not stated), which GI50 (786-0) is on record?
A: The GI50 was 29.8 µM (inactive).

Q: And the GI50 (A498)?
A: The GI50 was > 100 µM (inactive).

Q: What about the GI50 (A549) of the same compound?
A: Its GI50 is > 94.6 µM (inactive).

Q: And the GI50 (ACHN)?
A: Its GI50 is > 100 µM (inactive).

Q: What about the GI50 (BT-549) of the same compound?
A: Its GI50 is > 100 µM (inactive).

Q: What about the GI50 (CAKI-1) of the same compound?
A: Its GI50 is > 100 µM (inactive).

Q: What about the GI50 (CCRF-CEM) of the same compound?
A: Its GI50 is > 40.4 µM (inactive).

Q: What about the GI50 (COLO 205) of the same compound?
A: Its GI50 is > 33.7 µM (inactive).

Q: And the GI50 (DLD-1)?
A: The GI50 was 39.4 µM (inactive).

Q: What about the GI50 (DMS-114) of the same compound?
A: The GI50 was 73.5 µM (inactive).

Q: And the GI50 (DMS-273)?
A: The GI50 was 37.9 µM (inactive).

Q: And the GI50 (DU-145)?
A: The GI50 was > 31.6 µM (inactive).

Q: What about the GI50 (EKVX) of the same compound?
A: The GI50 was 14.5 µM (inactive).

Q: And the GI50 (HCC 2998)?
A: The GI50 was 22.5 µM (inactive).

Q: And the GI50 (HCT-116)?
A: Its GI50 is 31.8 µM (inactive).

Q: What about the GI50 (HCT-15) of the same compound?
A: The GI50 was 8.81 µM.

Q: What about the GI50 (HL-60) of the same compound?
A: Its GI50 is 26.3 µM (inactive).

Q: What about the GI50 (HOP-18) of the same compound?
A: The GI50 was > 100 µM (inactive).

Q: And the GI50 (HOP-62)?
A: The GI50 was > 45.6 µM (inactive).

Q: And the GI50 (HOP-92)?
A: Its GI50 is > 52.5 µM (inactive).

Q: And the GI50 (HT-29)?
A: Its GI50 is 37 µM (inactive).

Q: And the GI50 (Hs-578T)?
A: The GI50 was > 68.9 µM (inactive).

Q: And the GI50 (IGROV-1)?
A: Its GI50 is 9.59 µM (inactive).

Q: And the GI50 (K562)?
A: The GI50 was 10.9 µM (inactive).

Q: What about the GI50 (KM-20L2) of the same compound?
A: Its GI50 is 24 µM (inactive).

Q: What about the GI50 (KM12) of the same compound?
A: Its GI50 is 8.05 µM (inactive).

Q: And the GI50 (LOX IMVI)?
A: The GI50 was > 50.2 µM (inactive).

Q: What about the GI50 (LXFL 529) of the same compound?
A: The GI50 was 63.7 µM (inactive).

Q: What about the GI50 (M14) of the same compound?
A: Its GI50 is > 79.4 µM (inactive).

Q: And the GI50 (M19-MEL)?
A: The GI50 was > 100 µM (inactive).

Q: And the GI50 (MCF7)?
A: Its GI50 is 19.2 µM (inactive).

Q: And the GI50 (MDA-MB-435)?
A: The GI50 was > 100 µM (inactive).

Q: And the GI50 (MDA-N)?
A: The GI50 was > 100 µM (inactive).

Q: And the GI50 (MOLT-4)?
A: Its GI50 is > 71.6 µM (inactive).

Q: And the GI50 (Malme-3M)?
A: The GI50 was > 66.8 µM (inactive).

Q: What about the GI50 (NCI-H226) of the same compound?
A: The GI50 was > 37.3 µM (inactive).

Q: And the GI50 (NCI-H23)?
A: The GI50 was 78.5 µM (inactive).

Q: What about the GI50 (NCI-H460) of the same compound?
A: The GI50 was 8.75 µM (inactive).

Q: What about the GI50 (NCI-H522) of the same compound?
A: The GI50 was 65.5 µM (inactive).

Q: What about the GI50 (NCI/ADR-RES) of the same compound?
A: Its GI50 is > 100 µM (inactive).

Q: And the GI50 (OVCAR-3)?
A: The GI50 was 58.5 µM (inactive).

Q: And the GI50 (OVCAR-4)?
A: The GI50 was 31.4 µM (inactive).

Q: What about the GI50 (OVCAR-5) of the same compound?
A: Its GI50 is > 57.3 µM (inactive).

Q: What about the GI50 (OVCAR-8) of the same compound?
A: Its GI50 is > 61.9 µM (inactive).

Q: What about the GI50 (PC-3) of the same compound?
A: The GI50 was > 86.7 µM (inactive).

Q: And the GI50 (RPMI-8226)?
A: Its GI50 is 30.6 µM (inactive).

Q: What about the GI50 (RXF 393) of the same compound?
A: The GI50 was > 100 µM (inactive).

Q: What about the GI50 (SF-268) of the same compound?
A: The GI50 was > 100 µM (inactive).

Q: What about the GI50 (SF-295) of the same compound?
A: Its GI50 is 69 µM (inactive).

Q: What about the GI50 (SF-539) of the same compound?
A: The GI50 was 33.5 µM (inactive).

Q: And the GI50 (SK-MEL-28)?
A: Its GI50 is > 100 µM (inactive).

Q: What about the GI50 (SK-MEL-2) of the same compound?
A: Its GI50 is 61 µM (inactive).

Q: And the GI50 (SK-MEL-5)?
A: Its GI50 is 97.7 µM (inactive).

Q: What about the GI50 (SK-OV-3) of the same compound?
A: The GI50 was > 100 µM (inactive).

Q: What about the GI50 (SN12C) of the same compound?
A: Its GI50 is 43.6 µM (inactive).

Q: And the GI50 (SNB-19)?
A: The GI50 was > 100 µM (inactive).

Q: And the GI50 (SNB-75)?
A: Its GI50 is 18.8 µM (inactive).

Q: And the GI50 (SNB-78)?
A: Its GI50 is > 100 µM (inactive).

Q: And the GI50 (SR)?
A: Its GI50 is 25.7 µM (inactive).

Q: What about the GI50 (SW-620) of the same compound?
A: The GI50 was > 64.6 µM (inactive).

Q: What about the GI50 (T47D) of the same compound?
A: The GI50 was 9.38 µM (inactive).

Q: What about the GI50 (TK-10) of the same compound?
A: The GI50 was > 100 µM (inactive).

Q: And the GI50 (U-251)?
A: Its GI50 is 64.4 µM (inactive).

Q: What about the GI50 (UACC-257) of the same compound?
A: The GI50 was > 77.4 µM (inactive).

Q: What about the GI50 (UACC-62) of the same compound?
A: Its GI50 is > 70 µM (inactive).

Q: What about the GI50 (UO-31) of the same compound?
A: Its GI50 is > 100 µM (inactive).

Q: And the GI50 (XF498)?
A: The GI50 was 40.3 µM (inactive).
